Test results: patent US4649157A, “Pharmaceutical compositions containing 5-phenyl-1,3-dioxoalkenyl compounds” (G. D. Searle & Co., priority 1986, dated 1987)

System: Leukotriene C4 (LTC4) and leukotriene D4 (LTD4) biosynthesis by cultured rat basophilic leukemia cells (RBL-1 cells)
Test: Inhibition of leukotriene biosynthesis (LTC4 and LTD4, ionophore-induced) in cultured RBL-1 cells, quantitated by radioimmunoassay
Format: cell-based
Settings: LTC4 equivalents by [3H]-RIA
Experimental: Leukotriene C4 (LTC4) and leukotriene D4 (LTD4) biosynthesis by cultured rat basophilic leukemia cells (RBL-1 cells) was induced by incubation of the cells with an ionophore. See B. A. Jakschik, S. Falkenheim, and C. W. Parker, "Precursor Role of Arachidonic Acid in Release of Slow Reacting Substance from Rat Basophilic Leukemia Cells," Proc Natl. Acad. Sci. U.S.A., 74, 4577-4581 (1977). The LTC4 and LTD4 biosynthesis was quantitated at LTC4 equivalents by radioimmunoassay using the Leukotriene C4 [^3 H]-RIA Kit available commercially from New England Nuclear, 549 Albany Street, Boston, Mass. Compounds were screened initially at 10^-4 M or 10^-5 M and compared with nordihydroguaiaretic acid (the reference standard). A compound inhibiting leukotriene synthesis at any given concentration by at least 30% relative to the reference standard was considered active. […] Table A lists IC50 's for representative compounds of this invention.

| IC50 [µM] | SMILES |
| --- | --- |
| 27 | CCOC(=O)CC(=O)C=Cc1cccc(Oc2ccccc2)c1 [Example 20, ethyl 3-oxo-5-(3-phenoxyphenyl)-4-pentenoate] |
| 20 | CCOC(=O)CC(=O)C=Cc1ccccc1 [Example 1, ethyl 3-oxo-5-phenyl-4-pentenoate] |

Further lines, the compound ahead of its results:

| SMILES | IC50 [µM] |
| --- | --- |
| CCOC(=O)CC(=O)C=Cc1ccc(OC)cc1 [Example 23, ethyl 5-(4-methoxyphenyl)-3-oxo-4-pentenoate] | 67 |
| CCOC(=O)CC(=O)C=Cc1cccc2ccccc12 [Example 27, ethyl 5-(1-naphthyl)-3-oxo-4-pentenoate] | 27.2 |
| CCOC(=O)CC(=O)C=Cc1cccc(Oc2ccc(Cl)cc2)c1 [Example 21, ethyl 5-[3-(4-chlorophenoxy)phenyl]-3-oxo-4-pentenoate] | 26.5 |
